“Also recorded” adds a separate entry of the source.
Tests used:
[1] = system: DNMT1; experiment: DNMT1 mRNA expression (qRT-PCR) in mouse mammary glands and tumors; assay type: in vivo; conditions: in utero exposure vs control mice
Description: Total RNA was extracted using an RNeasy lipid mini kit (Qiagen, CA), according to manufacturer's instructions. One […] of total RNA per sample was used as a template for oligo-dT primed cDNA synthesis with a Supterscript reverse transcriptase, using Taqman Reverse Transcription kit (Applied Biosystems, CA). The cDNA samples served then as templates for quantitative real time PCR analysis with specific primers for the target gene using QuantiTect SYBR green PCR kit (Qiagen Inc., Valencia, Calif.) and an ABI Prism 7900 Sequence Detection System. Each sample was run in triplicate on a 384-well plate, and the qPCR run was repeated twice. The Ct values were averaged from the triplicates for each sample. To normalize the target gene expression the ratio to control RNA was calculated, i.e. the averages of the Ct triplicates from the Dnmt1 gene were divided by the average of the triplicates from the 18S gene. To determine the fold change of the target gene expression the results are presented as 2^ΔCt, where ΔCt=CT^target−Ct^18S.
The primer sequences for m18S rRNA were as previously published by Wang et al. (27).
Mammary tumor latency was compared with the final tumor burden in utero EE2 and GEN exposed mice to control mice, and in utero EE2 and GEN exposed mice to control mice exposed to HDAC+DNMT inhibitors separately; analysis was done using one-way ANOVA. Cumulative tumor burden during 16 weeks of tumor monitoring in the three groups, separately in those mice not given HDAC+DNMT inhibitors and those treated with the epigenetic drugs, was analysed using repeated measures one-way ANOVA. Log rank analysis was performed to compare mammary tumor incidence in the control and in utero EE2 and GEN exposed mice, again separately in those mice not given HDAC+DNMT inhibitors and those treated with the epigenetic drugs. Data for changes in DNMT1 expression among the groups in the mammary glands and tumors were assessed using two-way ANOVA, followed by Fisher LSD test

[2] = system: mammary gland; experiment: Mammary gland morphology of in utero exposed mice (whole mounts); assay type: in vivo, C57BL/6 mice; conditions: female mice, PND 27
Description: One of the two #4 abdominal mammary glands was dissected and fixed in Carnoy's fixative and processed into whole mounts as previously described (8). The other #4 abdominal gland was snap frozen in liquid nitrogen and stored in −80° C. for future analysis. One of the two thoracic #2-3 mammary glands was fixed in neutral buffered 10% formalin, embedded in paraffin and processed for histology using routine methods, and the other was snap frozen in liquid nitrogen, also stored in −80° C. for future analysis. Uterus was dissected, and one horn with the ovary and vagina attached was fixed in 10% formalin, embedded in paraffin and processed for histology, and the other horn and one ovary were frozen in liquid nitrogen and stored in −80° C.
To assess possible changes in mammary gland morphology, whole amounts of the 4th abdominal glands obtained on PND 27 were processed as previously described (4, 72). The total number of terminal end buds (TEBs) was counted. Identification of TEBs was based on the guidelines established by Russo and Russo (64). The total area (in pixels) of epithelium of the peripubertal (PND 27) mammary glands was analyzed by using ImageJ software (available through NIH web site) on digitized pictures of mammary whole mounts with ducts manually intensified black against white background (shown as an insert in FIG. 16). Ductal elongation (mammary epithelial outgrowth) on PND 50 was measured as the growth in millimeters from the end of the lymph node to the end of the epithelial tree. All the analyses were done blindly using an Olympus dissecting microscope.

[3] = system: mammary tumors; experiment: MPA/DMBA mammary tumorigenesis in mice exposed in utero to EE2, GEN or BPA (Example 5); assay type: in vivo, C57BL/6 mice; conditions: mouse, in vivo
Description: Additions to the basic diet were as follows: 1) cornstarch [control]; 2) EE2 0.1 ppm; 3) BPA 0.155 ppm; 4) GEN 500 ppm.

[4] = system: mammary gland; experiment: Number of terminal end buds (TEBs) in mammary whole mounts of F1-F3 rat offspring; assay type: in vivo, Sprague-Dawley rats; conditions: mean±s.e.m.
Description: Whole mounts (n=5-6 per group and age) were examined under the microscope and evaluated as described before (28) to assess the number of terminal end buds (TEBs). Results were analyzed by t-test (or Mann-Whitney Rank Sum test) or one-ANOVA (when comparing outcross groups in F2 generation). Where appropriate, between groups comparisons after ANOVA were done by Holm-Sidak multi-comparison procedure.

[5] = system: Dnmt1; experiment: Dnmt mRNA expression (qRT-PCR) in mammary glands of F1-F3 rat offspring; assay type: in vivo, Sprague-Dawley rats; conditions: for levels of Dnmt1 mRNA in mammary gland: PND50
Description: Total mammary RNA (n=3-6/group) was used as a template for random primed cDNA synthesis (TaqMan MultiScribe Reverse Transcriptase and RT-PCR Reagents, AppliedBiosystems, Roche, N.J., USA). cDNA samples were then used as templates for quantitative RT PCR analysis with previously described specific primers for the target gene, rat Dnmt1 (124) using QuantiTect SYBR green PCR kit (Qiagen Inc., Valencia, Calif.). Each sample was normalized to the reference gene 18S rRNA (27). Two hundred ng of total RNA per sample (n=3-6) was used as a template for random primed cDNA synthesis with a recombinant Moloney murine leukemia virus reverse transcriptase (TaqMan MultiScribe Reverse Transcriptase and RT-PCR Reagents, AppliedBiosystems, Roche, N.J., USA), according to manufacturer's instructions. An RT enzyme-minus control reaction was also included. The cDNA samples were then used as templates for quantitative real time PCR analysis with previously described specific primers for the target gene, rat Dnmt1(29) using QuantiTect SYBR green PCR kit (Qiagen Inc., Valencia, Calif.) and an ABI Prism 7900 Sequence Detection System. Each sample was run in triplicate, and the qPCR run was repeated twice. Absolute gene expression levels were determined using Applied Biosystems' SDS2.3 software and the standard curve method. Concentration of each sample was normalized to the reference gene 18S rRNA (30), and averages of the three runs are shown. Differences in Dnmt1 mRNA expression levels were tested by two-way ANOVA (after log-transformation), followed by Holm-Sidak multicomparison procedure.

[6] = Litter size and pup weight in F1-F3 rat generations; assay type: in vivo, Sprague-Dawley rats; conditions: diet of the F0 dams; any of the three generations
Description: Pregnant dams were weighed once a week to monitor changes in weight gain. The birth weight of pups and number of pups per litter were recorded. To avoid litter-effect, pups were crossfostered 1-2 days after dams gave birth. Pups from 2-4 dams were pooled and housed in a litter of 8-10 pups per nursing dam (which had the same dietary/hormonal exposure during pregnancy as the pups' mothers). All pups were weaned on postnatal day 21.

[7] = system: DNA adducts; experiment: MDA-DNA adduct levels in mammary glands of F1-F3 rat offspring; assay type: in vivo, Sprague Dawley rats; conditions: F1-F3 generation offspring
[8] = Con x EE2 outcross (F2 generation)
[9] = EE2 x Con outcross (F2 generation)
[10] = maternal EE2 diet 0.1 ppm, F1 generation
[11] = maternal EE2 diet, F2 generation
[12] = maternal EE2 diet, F3 generation

SMILES: C#C[C@]1(O)CC[C@H]2[C@@H]3CCc4cc(O)ccc4[C@H]3CC[C@@]21C [EE2, ethinyl estradiol]
- DNMT1 expression in mammary tumors [1]: significantly lower
- expression of DNMT1 in mammary glands [1]: an increase in the expression of DNMT1; also recorded: persistent up-regulation
- total epithelial area of the glands [2]: significantly increased
- mammary tumorigenesis (onset of tumor growth and cumulative tumor burden) [3]: Enhanced mammary tumorigenesis
- Number of TEBs PND 21 [4, 8]: 19.4 ± 1.5
- Number of TEBs PND 50 [4, 8]: 11.0 ± 1.2
- Number of TEBs PND 21 [4, 9]: 32.7 ± 3.6
- Number of TEBs PND 50 [4, 9]: 22.8 ± 1.6
- Number of TEBs PND 21 [4, 10]: 25.3 ± 1.3
- Number of TEBs PND 50 [4, 10]: 32.5 ± 2.3
- Number of TEBs PND 21 [4, 11]: 30.8 ± 1.9
- Number of TEBs PND 50 [4, 11]: 22.2 ± 3.8
- Number of TEBs PND 21 [4, 12]: 33.0 ± 2.1
- Number of TEBs PND 50 [4, 12]: 28.7 ± 3.4
- levels of Dnmt1 mRNA in mammary gland ([5]; F1 generation): increased
- levels of Dnmt1 mRNA in mammary gland ([5]; F2 and F3 generation offspring): this increase persisted
- DNMT3a or 3b expression in the mammary glands ([5]; in utero exposed rats, not shown): Neither DNMT3a or 3b were altered
- litter size or pups weight [6]: did not affect
- DNA adduct formation by measuring MDA levels [7]: mimicked the findings of changes in CYP1B1 expression

— US20130324543A1, “REVERSAL OF HIGH BREAST CANCER RISK IN MAMMALS EXPOSED TO ESTROGENIC CHEMICALS IN UTERO BY ADULT EXPOSURE TO HDAC AND DNMT INHIBITORS” (Georgetown University, priority 2012, published 2013)
